From patent US12637440B2, “Amide derivative useful as diacylglycerol acyltransferase 2 inhibitor, and use thereof” (LG CHEM, LTD., priority 2019, dated 2026)

What follows are compounds tested against T1, Recombinant human DGAT2 protein (Homo sapiens, UniProt Q96PD7) (assay: Measurement of inhibitory effect against DGAT2 enzyme activity (SPA, Phospholipid FlashPlate, [14C]-TG production)). Settings: concentration inhibiting [14C]-labeled triacyl glycerol (TG) production by 50%; 2 μg DGAT2-membrane protein from Sf-21 cells, 37° C.
T1 construct: FLAG (DYKDDDDK); (N); made in house; host or cells: Sf-21 insect cells (BacPAK baculovirus system); used as a membrane preparation
T1 sequence (Q96PD7 1-388): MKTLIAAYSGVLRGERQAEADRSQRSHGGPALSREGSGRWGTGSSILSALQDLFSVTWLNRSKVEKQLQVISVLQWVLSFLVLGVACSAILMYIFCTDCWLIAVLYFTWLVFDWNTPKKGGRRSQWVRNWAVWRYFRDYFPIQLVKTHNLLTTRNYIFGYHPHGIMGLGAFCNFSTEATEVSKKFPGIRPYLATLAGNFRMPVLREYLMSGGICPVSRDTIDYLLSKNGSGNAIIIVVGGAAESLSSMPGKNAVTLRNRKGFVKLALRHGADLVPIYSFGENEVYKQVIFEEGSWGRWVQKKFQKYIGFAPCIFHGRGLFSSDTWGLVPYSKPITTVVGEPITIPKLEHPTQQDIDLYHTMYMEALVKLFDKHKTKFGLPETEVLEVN
Type: biochemical
Outline: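 Membranes from Sf-21 cells expressing human DGAT2 (2 μg) preincubated 20 min at 37 °C with compound (3 nM–10 μM, 1% DMSO) in HEPES/MgCl2/BSA with 50 μM 1,2-dioleoyl glycerol, then 1 μM [14C]oleoyl-CoA for 15 min. [14C]-TG measured by SPA FlashPlate; inhibition as % of untreated control.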

Row | IC50 [µM] | Structure (SMILES)
1 | 0.025 | CCOc1ccccc1O[C@@H]1CCCN(c2cncc(NC(=O)C3CCN(S(C)(=O)=O)CC3)n2)C1 [Example 15]
2 | 2.9 | CCOc1ccccc1O[C@@H]1CCCN(c2cncc(NC(=O)Cc3ccc(OCC(=O)O)cc3)n2)C1 [Example 99]
3 | 0.32 | CCOc1ccccc1O[C@@H]1CCCN(c2cncc(NC(=O)COc3ccc(C(C)C(=O)O)cc3)n2)C1 (stereo partly drawn) [Example 101, 2-(4-(2-((6-((R)-3-(2-ethoxyphenoxy)piperidin-1-yl)pyrazin-2-yl)amino)-2-oxoethoxy)phenyl)propanoic acid]
4 | 0.15 | CCOc1ccccc1O[C@@H]1CCCN(c2cncc(NC(=O)CCc3ccc(CCC(=O)O)cc3)n2)C1 [Example 61, (R)-3-(4-(3-((6-(3-(2-ethoxyphenoxy)piperidin-1-yl)pyrazin-2-yl)amino)-3-oxopropyl)phenyl)propanoic acid]
5 | > 10 | CC(C)Oc1ccccc1O[C@@H]1CCCN(c2cncc(NC(=O)Cc3ccc(CC(=O)O)cc3)n2)C1 [Example 90, (R)-2-(4-(2-((6-(3-(2-isopropoxyphenoxy)piperidin-1-yl)pyrazin-2-yl)amino)-2-oxoethyl)phenyl)acetic acid]
6 | 6.1 | CCOc1ccccc1O[C@@H]1CCCN(c2cncc(NC(=O)Nc3ccc(CC(=O)O)cc3)n2)C1 [Example 67, (R)-2-(4-(3-(6-(3-(2-ethoxyphenoxy)piperidin-1-yl)pyrazin-2-yl)ureido)phenyl)acetic acid]
7 | 1.3 | C=C(CNc1ccc(CCC(=O)O)cc1)C(=O)Nc1cncc(N2CCC[C@@H](Oc3ccccc3OCC)C2)n1 [Example 74, (R)-3-(4-((2-((6-(3-(2-ethoxyphenoxy)piperidin-1-yl)pyrazin-2-yl)carbamoyl)allyl)amino)phenyl)propanoic acid]
8 | 0.38 | CCOc1ccccc1O[C@@H]1CCCN(c2cncc(NC(=O)c3cccc(-c4ccc(CC(C)(C)C(=O)O)cc4)c3)n2)C1 [Example 130, (R)-3-(3′-((6-(3-(2-ethoxyphenoxy)piperidin-1-yl)pyrazin-2-yl)carbamoyl)-[1,1′-biphenyl]-4-yl)-2,2-dimethylpropanoic acid]
9 | 16 | CCOc1ccccc1O[C@@H]1CCCN(c2cncc(NC(=O)c3ccccc3C(=O)O)n2)C1 [Example 11, (R)-2-((6-(3-(2-ethoxyphenoxy)piperidin-1-yl)pyrazin-2-yl)carbamoyl)benzoic acid]
10 | 0.03 | CCOc1ccccc1O[C@@H]1CCCN(c2cncc(NC(=O)Cc3ccc(CC(N)=O)cc3)n2)C1 [Example 35]
11 | 0.62 | CCOc1ccccc1O[C@@H]1CCCN(c2cncc(NC(=O)Cc3ccc(O[C@H](C)C(=O)O)cc3)n2)C1 [Example 103, (R)-2-(4-(2-((6-((R)-3-(2-ethoxyphenoxy)piperidin-1-yl)pyrazin-2-yl)amino)-2-oxoethyl)phenoxy)propanoic acid]
12 | > 10 | CCOc1ccccc1O[C@@H]1CCCN(c2cncc(NC(=O)C(C)(C)c3ccc(N4CCC(C(=O)O)CC4)cc3)n2)C1 [Example 86, (R)-1-(4-(1-((6-(3-(2-ethoxyphenoxy)piperidin-1-yl)pyrazin-2-yl)amino)-2-methyl-1-oxopropan-2-yl)phenyl)piperidine-4-carboxylic acid]
13 | 0.82 | CCOc1ccccc1O[C@@H]1CCCN(c2cncc(NC(=O)CCc3ccc(N4CCC(C(=O)O)CC4)cc3)n2)C1 [Example 56, (R)-1-(4-(3-((6-(3-(2-ethoxyphenoxy)piperidin-1-yl)pyrazin-2-yl)amino)-3-oxopropyl)phenyl)piperidine-4-carboxylic acid]
14 | 0.008 | CCOc1ccccc1O[C@@H]1CCCN(c2cncc(NC(=O)C3CCN(c4ncc(CC)cn4)CC3)n2)C1 [Example 18, (R)—N-(6-(3-(2-ethoxyphenoxy)piperidin-1-yl)pyrazin-2-yl)-1-(5-ethylpyrimidin-2-yl)piperidine-4-carboxamide]
15 | 0.14 | CCOc1cccnc1O[C@@H]1CCCN(c2ccnc(NC(=O)Cc3ccc(CC(C)(C)C(=O)O)cc3)n2)C1 [Example 114, (R)-3-(4-(2-((4-(3-((3-ethoxypyridin-2-yl)oxy)piperidin-1-yl)pyrimidin-2-yl)amino)-2-oxoethyl)phenyl)-2,2-dimethylpropanoic acid]
16 | 1 | CCOc1ccccc1O[C@@H]1CCCN(c2cncc(NC(=O)C3CCN(c4ccc(C(=O)O)cc4)CC3)n2)C1 [Example 59, (R)-4-(4-((6-(3-(2-ethoxyphenoxy)piperidin-1-yl)pyrazin-2-yl)carbamoyl)piperidin-1-yl)benzoic acid]

Row | IC50 [µM] | Structure (SMILES)
17 | 1.6 | CCOc1ccccc1O[C@@H]1CCCN(c2cncc(NC(=O)N3CCCC3)n2)C1 [Example 4, (R)—N-(6-(3-(2-ethoxyphenoxy)piperidin-1-yl)pyrazin-2-yl)pyrrolidine-1-carboxamide]
18 | 0.45 | CCOc1ccccc1O[C@@H]1CCCN(c2cncc(NC(=O)Cc3ccc(OCC(C)(C)C(=O)O)cc3)n2)C1 [Example 102]
19 | 2.5 | CCOc1cccnc1O[C@@H]1CCCN(c2ccnc(NC(=O)C(C)(C)c3ccc(CC(C)(C)C(=O)O)cc3)n2)C1 [Example 78, (R)-3-(4-(1-((4-(3-((3-ethoxypyridin-2-yl)oxy)piperidin-1-yl)pyrimidin-2-yl)amino)-2-methyl-1-oxopropan-2-yl)phenyl)-2,2-dimethylpropanoic acid]
20 | 0.14 | CCOc1ccccc1O[C@@H]1CCCN(c2cncc(NC(=O)CCC34CCC(C(=O)O)(CC3)CC4)n2)C1 [Example 117, (R)-4-(3-((6-(3-(2-ethoxyphenoxy)piperidin-1-yl)pyrazin-2-yl)amino)-3-oxopropyl)bicyclo[2.2.2]octane-1-carboxylic acid]
21 | 0.053 | CCOc1ccccc1O[C@@H]1CCCN(c2cncc(NC(=O)c3ccccc3)n2)C1 [Example 6, (R)—N-(6-(3-(2-ethoxyphenoxy)piperidin-1-yl)pyrazin-2-yl)benzamide]
22 | 4 | CCOc1ccccc1O[C@@H]1CCCN(c2cncc(NC(=O)C3CCC[C@H]3C(=O)O)n2)C1 (stereo partly drawn) [Example 20, (1R)-2-((6-((R)-3-(2-ethoxyphenoxy)piperidin-1-yl)pyrazin-2-yl)carbamoyl)cyclopentane-1-carboxylic acid]
23 | 3.1 | CCOc1ccccc1O[C@@H]1CCCN(c2cncc(NC(=O)/C=C/c3ccc(C(=O)O)cc3)n2)C1 [Example 41, (R,E)-4-(3-((6-(3-(2-ethoxyphenoxy)piperidin-1-yl)pyrazin-2-yl)amino)-3-oxoprop-1-en-1-yl)benzoic acid]
24 | 1.1 | CCOc1ccccc1O[C@@H]1CCCN(c2nccc(NC(=O)CCc3ccc(OC(C)(C)C(=O)O)cc3)n2)C1 [Example 109, (R)-2-(4-(3-((2-(3-(2-ethoxyphenoxy)piperidin-1-yl)pyrimidin-4-yl)amino)-3-oxopropyl)phenoxy)-2-methylpropanoic acid]
25 | 9.1 | CCOc1ccccc1O[C@@H]1CCCN(c2cncc(NC(=O)c3ccc(C(C)(C)C(=O)O)cc3)n2)C1 [Example 13, (R)-2-(4-((6-(3-(2-ethoxyphenoxy)piperidin-1-yl)pyrazin-2-yl)carbamoyl)phenyl)-2-methylpropanoic acid]
26 | 1.1 | CCOc1ccccc1O[C@@H]1CCCN(c2cncc(NC(=O)Cc3ccc(CC(=O)O)cc3)n2)C1 [Example 34, (R)-2-(4-(2-((6-(3-(2-ethoxyphenoxy)piperidin-1-yl)pyrazin-2-yl)amino)-2-oxoethyl)phenyl)acetic acid]
27 | 0.31 | CCOc1ccccc1O[C@@H]1CCCN(c2cncc(NC(=O)C(C)(C)c3ccc(CCC(=O)O)cc3)n2)C1 [Example 73, (R)-3-(4-(1-((6-(3-(2-ethoxyphenoxy)piperidin-1-yl)pyrazin-2-yl)amino)-2-methyl-1-oxopropan-2-yl)phenyl)propanoic acid]
28 | 0.088 | CCOc1ccccc1O[C@@H]1CCCN(c2cncc(NC(=O)CCc3cc(Cl)c(C(=O)O)c(Cl)c3)n2)C1 [Example 54, (R)-2,6-dichloro-4-(3-((6-(3-(2-ethoxyphenoxy)piperidin-1-yl)pyrazin-2-yl)amino)-3-oxopropyl)benzoic acid]
29 | 0.71 | CCOc1ccccc1O[C@@H]1CCCN(c2cncc(NC(=O)CCc3cccc(C(=O)O)c3)n2)C1 [Example 48, (R)-3-(3-((6-(3-(2-ethoxyphenoxy)piperidin-1-yl)pyrazin-2-yl)amino)-3-oxopropyl)benzoic acid]
30 | 0.15 | CCOc1ccccc1O[C@@H]1CCCN(c2ccnc(NC(=O)Cc3ccc(CC(C)(C)C(=O)O)cc3)n2)C1 [Example 113, (R)-3-(4-(2-((4-(3-(2-ethoxyphenoxy)piperidin-1-yl)pyrimidin-2-yl)amino)-2-oxoethyl)phenyl)-2,2-dimethylpropanoic acid]
31 | 0.066 | CCOc1ccccc1O[C@@H]1CCCN(c2cncc(NC(=O)CCc3ccc(C4(C(=O)O)CC4)cc3)n2)C1 [Example 52, (R)-1-(4-(3-((6-(3-(2-ethoxyphenoxy)piperidin-1-yl)pyrazin-2-yl)amino)-3-oxopropyl)phenyl)cyclopropane-1-carboxylic acid]

Row | Structure (SMILES) | IC50 [µM]
32 | CC(C)(Cc1ccc(C(C)(C)C(=O)Nc2cncc(N3CCC[C@@H](Oc4ccccc4OC4CCC4)C3)n2)cc1)C(=O)O [Example 126, (R)-3-(4-(1-((6-(3-(2-cyclobutoxyphenoxy)piperidin-1-yl)pyrazin-2-yl)amino)-2-methyl-1-oxopropan-2-yl)phenyl)-2,2-dimethylpropanoic acid] | 3.8
